{
  "source": "patent US11957671B2",
  "about": "“Benzodioxane modulators of leukotriene A4 hydrolase (LTA4H) for prevention and treatment of aging-associated diseases” (Alkahest, Inc., priority 2021, dated 2024)",
  "key": {"[1]": {"tested_on": "brain endothelial cells of aged C57BL/6 mice", "assay": "Single cell RNA sequencing of brain endothelial cells (BECs)", "type": "in vivo, mouse", "protocol": "Male C57BL/6 mice aged 20-21 months were treated with Vehicle or SC-57461A commercially available LTA4H inhibitor. The mice were dosed with SC-57461A at 2.5 mg/kg PO bid for one month. Mice were anesthetized and blood and tissues were collected for further analysis. Blood was collected via cardiac puncture in syringes pre-filled with Heparin. Brains were collected following ACSF perfusion and processed for single cell RNA sequencing of labeled endothelial cells.\nBrain endothelial cells (BECs) were sorted, sequenced, and analyzed based on techniques known to those having ordinary skill in the art. […] Gates were determined to separate CD31-positive, CD11b-negative endothelial cells from CD11b-positive, CD31-negative microglia. […]\nAged C57BL/6 mice (21 months of age) were treated for 1 month bid P.O. with vehicle, 1 mg/kg Compound 1, or 2.5 mg/kg SC57461A (n=3 mice per treatment group). Brain endothelial cells were sorted, sequenced and analyzed as described in Example 12 (See Chen M B, et al., Cell Rep, 30(13):4418-32e4 (2020) which is herein incorporated by reference in its entirety).\nGO terms are generated using the g:Profiler Web server (https://bitt.cs.ut.ee/gprofiler) to analyze differential regulated gene lists. Reported are the top 20 gene ontology (GO terms) terms from the biological process category, sorted by significance as determined by P-value. […]"}, "[2]": {"tested_on": "purified endothelial cells from the brains of aged C57BL/6 mice", "assay": "Microbulk qPCR of endothelial genes", "type": "in vivo, mouse", "settings": "1 month bid P.O., 1 mg/kg Compound 1 or 2.5 mg/kg SC57461A", "protocol": "Downregulation of the detrimental genes Bsg, Gbp4, and CXCL12 in purified endothelial cells from the brains of mice treated with LTA4H inhibitors Compound 1 or SC57461A were compared to those of vehicle treated mice. Gene expression was measured by qPCR from 500 sorted endothelial cells and was normalized to GAPDH control.\nAged C57BL/6 mice (21 months of age) were treated for 1 month bid P.O. with vehicle, 1 mg/kg Compound 1, or 2.5 mg/kg SC57461A (n=3 mice per treatment group). One cortical cap (cortex and hippocampus) from each mouse was isolated and cells were dissociated using Miltenyi Neutral Dissociation Kit (#130-092-628). Cells were sorted using Sony Multi-Application Cell Sorter MA900 into clean, RNAase free 200 uL PCR strip tube with 5 uL RNAlater at a concentration of 500 cells per tube. RNA was isolated follow kit protocol for Qiagen RNeasy Micro Kit (#74004). cDNA was synthesized using SuperScript III Kit Protocol and qPCR assays were run using TaqMan or SYBR green primers.\nDownregulation of the beneficial gene, Plat, in purified endothelial cells from the brains of mice treated with LTA4H inhibitors Compound 1 or SC57461A were compared to those of vehicle treated mice. Gene expression was measured by qPCR from 500 sorted endothelial cells and was normalized to GAPDH control."}, "aged C57BL/6 mice [3]": {"tested_on": "aged C57BL/6 mice", "assay": "Long term potentiation (LTP) in hippocampal slices", "type": "in vivo, mouse", "settings": "1 month bid po, 1 mg/kg Compound 1 or 2.5 mg/kg SC57461A", "protocol": "Aged C57BL/6 mice (21 months of age) were treated for 1 month bid po with vehicle, 1 mg/kg Compound 1, or 2.5 mg/kg SC57461A (n=5 mice per treatment group). Electrophysical recordings were performed at AfaSci, Inc, as follows. Animals were deeply anesthetized with halothane and decapitated. The brain was quickly taken out and placed into ice-cold artificial cerebrospinal fluid (ACSF) that was continuously bubbled with 5% CO2/95% O2. The ACSF was composed of (in mM) NaCl 130.0, KCl 2.5, KH2PO4 1.2, CaCl2 2.4, MgSO4 1.3, NaHCO326.0 and glucose 10.0 (pH 7.4). Hippocampal slices (400 μm thick) were prepared using a tissue slicer (Stoelting Co., IL) and incubated at room temperature in continuously oxygenated ACSF for at least 1 h before being recorded with submerged mode in chamber (Harvard Apparatus) at room temperature. Data were collected with an Axopatch-2B amplifier and pClamp 10.4 program (Axon Instruments) through digidata 1320A.\nField population spike (PS) was recorded using glass microelectrode filled with ACSF (resistance: 1-3 MO). Biphasic current pulses (0.2 ms duration for one phase, 0.4 ms in total) were delivered in 10 s intervals through a concentric bipolar stimulating electrode (FHC, Inc.). […] To record field population spikes in dorsal dentate gyrus, the stimulating electrode was placed on the hippocampal fissure to stimulate the bypassing perforant pathway fibers and the recording electrode was placed on inner part of granular cell layer. To record field EPSPs in DG, the stimulating electrode was placed on the hippocampal fissure to stimulate the bypassing perforant pathway fibers and the recording electrode was placed on inner part of granular cell layer. Slices were recorded within 8 hours after dissection. Titanic stimulation consisted of 2 trains of 100 pulses (0.4 ms bipolar pulse duration, 100 Hz) lasting for 1 second with 5 seconds of interval. The slope of EPSP and amplitude of population spike were measured from the initial phase of negative wave with Clampfit10.4. Each data point was measured with average of 3 consecutive traces. LTP was plotted as the percentage to baseline following high frequency stimulation (mean±SEM)."}, "mice": {"tested_on": "mice", "settings": "previous studies; cited from earlier work"}, "aged C57BL/6 mice [4]": {"tested_on": "aged C57BL/6 mice", "assay": "Unbiased single cell RNA sequencing of brain tissue", "type": "in vivo, mouse", "settings": "2.5 mg/kg bid P.O. 1 month", "protocol": "Aged C57BL/6 mice (21 months of age) were treated for 1 month bid P.O. with vehicle or 2.5 mg/kg SC57461A (n=3 mice per treatment group). One cortical cap (cortex and hippocampus) from each mouse was isolated and cells were dissociated and sorted using Sony Multi-Application Cell Sorter MA900. Unbiased RNA sequencing from single brain cells were analyzed according to techniques described previously (Yousf H, et al., Bio Protoc., 8(22):e3091 (2018), which is herein incorporated by reference in its entirety)."}, "aged mice": {"tested_on": "aged mice", "assay": "CA1 synapse density by histology", "type": "in vivo, mouse", "settings": "preliminary data, pre- and post-synaptic protein staining"}, "[5]": {"tested_on": "hippocampal neurons of aged C57BL/6 mice", "assay": "Single cell RNA sequencing of NeuN+ hippocampal nuclei (CA1, DG)", "type": "in vivo, mouse", "protocol": "Aged C57BL/6 mice (21 months of age) were treated for 1 month bid po with vehicle, 1 mg/kg Compound 1, or 2.5 mg/kg SC57461A (n=3 mice per treatment group). NucSeq For Mouse Brain Tissue protocol from 10× Genomics was used to isolate mouse hippocampus nuclei. Approximately 65 mg of brain tissue were used per treatment. Nonidet P40 was used to lyse cell walls and isolated nuclei were stained with Draq5 and NeuN antibodies for FACS sorting. Approximately 5,000 nuclei were collected for each sample. Eight samples were collected for each treatment for a total of 40,000 nuclei per treatment. These samples were prepped for sequencing using the 10× Genomics Chromium Next GEM kit.\nGO terms are generated using the g:Profiler Web server (https://bitt.cs.ut.ee/gprofiler) to analyze differential regulated gene lists. Reported are the top 20 gene ontology (GO terms) terms from the biological process category, sorted by significance as determined by P-value. This list was filtered to report significant GO terms that include less than 1000 genes."}, "[6]": {"settings": "1 month bid po, 1 mg/kg Compound 1 or 2.5 mg/kg SC57461A"}},
  "data": [
    {"smiles": "CN(CCCOc1ccc(Cc2ccccc2)cc1)CCC(=O)O.Cl", "note": "[SC-57461A, reference compound]", "values": [
      {"measurement": "Biological Process GO terms, BECs", "setting": "[1]; 2.5 mg/kg PO bid one month", "value": "changes to the endothelial milieu"},
      {"measurement": "endothelial cell gene changes, enriched brain endothelial cells", "setting": "[1]; 2.5 mg/kg bid P.O. 1 month", "value": "many significant gene changes to brain endothelial cells"},
      {"measurement": "Bsg gene expression", "setting": "[2]", "value": "down regulation of Bsg gene expression"},
      {"measurement": "CXCL12 gene expression", "setting": "[2]", "value": "down regulation of CXCL12 gene expression"},
      {"measurement": "Gpb4 gene expression", "setting": "[2]", "value": "down regulation of Gpb4 gene expression"},
      {"measurement": "Plat gene expression", "setting": "[2]", "value": "up regulation of Plat gene expression"},
      {"measurement": "LTP, CA1 region of the hippocampus", "setting": "aged C57BL/6 mice [3]", "value": "did not show the same LTP increase"},
      {"measurement": "LTP, DG region of the hippocampus", "setting": "aged C57BL/6 mice [3]", "value": "did not show the same LTP increase"},
      {"measurement": "memory domains improved", "setting": "mice", "value": "only improved spatial memory"},
      {"measurement": "Biological Process GO terms, astrocytes", "setting": "aged C57BL/6 mice [4]", "value": "changes to astrocytes"},
      {"measurement": "Biological Process GO terms, endothelial", "setting": "aged C57BL/6 mice [4]", "value": "changes to endothelial"},
      {"measurement": "Biological Process GO terms, pericytes", "setting": "aged C57BL/6 mice [4]", "value": "changes to pericyte"},
      {"measurement": "astrocyte gene changes", "setting": "aged C57BL/6 mice [4]", "value": "many significant gene changes to astrocytes"},
      {"measurement": "endothelial cell gene changes", "setting": "aged C57BL/6 mice [4]", "value": "many significant gene changes to brain endothelial cells"},
      {"measurement": "pericyte gene changes", "setting": "aged C57BL/6 mice [4]", "value": "many significant gene changes to pericytes"},
      {"measurement": "synapse density in the CA1 region of the hippocampus", "setting": "aged mice", "value": "no trend in increased CA1 synapse density"},
      {"measurement": "CA1 neuronal gene changes", "setting": "[5]; [6]", "value": "many significant gene changes to neurons in the CA1 region of the hippocampus"},
      {"measurement": "DG neuronal gene changes", "setting": "[5]; [6]", "value": "many significant gene changes to neurons in the DG region of the hippocampus"},
      {"measurement": "Dcc gene expression in the dentate gyrus", "setting": "[5]; [6]", "value": "not significantly impacted"},
      {"measurement": "Spock3 gene expression in the dentate gyrus", "setting": "[5]; [6]", "value": "not significantly impacted"},
      {"measurement": "Biological Process GO terms, CA1 hippocampal neurons", "setting": "[5]; long-term treatment", "value": "changes to synapses"},
      {"measurement": "Biological Process GO terms, DG hippocampal neurons", "setting": "[5]; long-term treatment", "value": "changes to synapses"}
    ]}
  ]
}
